The values below come from patent EP4692072A1, “PHOTOCHROMIC COMPOUND, PROPARGYL ALCOHOL COMPOUND, CURABLE COMPOSITION, OPTICAL ARTICLE, LENS, AND SPECTACLES” (TOKUYAMA CORPORATION, priority 2023, dated 2024).

The nature of data set [1]: Photochromic properties of photochromic laminate (plastic lens) prepared by coating method. The data set is classed as physicochemical. Conditions: 40 µm photochromic layer on thiourethane lens, 0.25 mmol compound per 100 g monomers, after color development. The source says:
First, the photochromic compound obtained in Example 1, a photoinitiator, and a polymerizable compound were mixed to obtain a curable composition.
Polyethylene glycol dimethacrylate (average molecular weight: 736): 42 parts by mass • Polyethylene glycol dimethacrylate (average molecular weight: 536): 12 parts by mass • Trimethylolpropane trimethacrylate: 38 parts by mass γ-methacryloyloxypropyl trimethoxysilane: 2 parts by mass Glycidyl methacrylate: 1 part by mass
Note that the photochromic compound was added to the curable composition so that the amount of the photochromic compound was 0.25 mmol based on 100 g of the total amount of the radical-polymerizable monomers.
Phenylbis(2,4,6-trimethylbenzoyl)phosphine oxide (photoinitiator: Omnirad 819): 0.3 parts by mass Ethylene bis(oxyethylene) bis[3-(5-tert-butyl-4-hydroxy-m-tolyl)propionate] (stabilizer, Irganox 245): 1 part by mass Bis(1,2,2,6,6-pentamethyl-4-piperidyl) sebacate: 3 parts by mass Leveling agent (L7001) manufactured by Dow Corning Toray Co.,Ltd.: 0.1 part by mass
First, a thiourethane-based plastic lens having a central thickness of 2 mm and a refractive index of 1.60 was prepared as the optical substrate. Note that this thiourethane-based plastic lens was pre-treated by alkaline etching with a 10% sodium hydroxide aqueous solution at 50°C for 5 minutes, followed by sufficient washing with distilled water.
A surface of the above-described plastic lens was coated with a moisture-curable primer (product name: TR-SC-P, manufactured by Tokuyama Corporation) at a rotation frequency of 70 rpm for 15 seconds, followed by 1000 rpm for 10 seconds, using a spin coater (1H-DX2, manufactured by MIKASA CO., LTD), Subsequently, about 2 g of the photochromic curable composition obtained above was spin-coated at a rotation frequency of 60 rpm for 40 seconds, followed by 600 rpm for 10 to 20 seconds, to form a photochromic coating layer with a film thickness of 40 µm.
The lens with the surface coated with the photochromic curable composition (photochromic coating layer) was irradiated with light using a metal halide lamp with an output power of 200 mW/cm^2 in a nitrogen gas atmosphere for 90 seconds to cure the coating film. Subsequently, the lens was further heated at 110°C for 1 hour to prepare a photochromic laminate having a photochromic layer.
In the same manner as in Example 26, photochromic laminates were prepared using the photochromic compounds obtained in Examples 2 to 25.
• [1] Maximum Absorption Wavelength (λmax): The maximum absorption wavelength after color development, measured using a spectrophotometer (instantaneous multichannel photodetector MCPD3000) manufactured by Otsuka Electronics Co., Ltd. was used as an indicator for the color tone during the color development. • [2] 23°C Color Optical Density (A23): A difference between an absorbancy measured after light irradiation at 23°C for 300 seconds {ε(300)} and an absorbancy without light irradiation ε(0) at the maximum absorption wavelength was used as an indicator for the color optical density. […] 23°C color fading half-life [τ1/2 (sec.)]: A time required for the absorbancy of the sample at the maximum absorption wavelength to decrease to 1/2 of {ε(300)-ε(0)} when the light irradiation was terminated after the light irradiation at 23°C for 300 seconds, was used as an indicator for the color fading speed. The shorter this time, the higher the color fading speed. • [4] Residual rate (A120/A0×100): The obtained photochromic plastic lens was subjected to accelerated deterioration using a xenon weather meter X25 manufactured by Suga Test Instruments Co., Ltd. for 120 hours. Subsequently, the color optical density was evaluated before and after the test, then a color optical density before the test (A0) and a color optical density after the test (A120) were measured, and a ratio (A120/A0) was defined as a residual rate. The residual rate was used as an indicator for a color developing durability. […]

The nature of data set [2]: Photochromic properties of photochromic cured product prepared by kneading method. The data set is classed as physicochemical. Conditions: 0.106 mmol per 100 g monomer; for A23: 1 mm cured product, 23°C color optical density ε(300)-ε(0); for Maximum absorption wavelength: 1 mm thiourethane cured product, after color development. As for the experimental part: • [1] Maximum Absorption Wavelength (λmax): The maximum absorption wavelength after color development, measured using a spectrophotometer (instantaneous multichannel photodetector MCPD3000) manufactured by Otsuka Electronics Co., Ltd. was used as an indicator for the color tone during the color development. • [2] 23°C Color Optical Density (A23): A difference between an absorbancy measured after light irradiation at 23°C for 300 seconds {ε(300)} and an absorbancy without light irradiation ε(0) at the maximum absorption wavelength was used as an indicator for the color optical density. […] 23°C color fading half-life [τ1/2 (sec.)]: A time required for the absorbancy of the sample at the maximum absorption wavelength to decrease to 1/2 of {ε(300)-ε(0)} when the light irradiation was terminated after the light irradiation at 23°C for 300 seconds, was used as an indicator for the color fading speed. The shorter this time, the higher the color fading speed. • [4] Residual rate (A120/A0×100): The obtained photochromic plastic lens was subjected to accelerated deterioration using a xenon weather meter X25 manufactured by Suga Test Instruments Co., Ltd. for 120 hours. Subsequently, the color optical density was evaluated before and after the test, then a color optical density before the test (A0) and a color optical density after the test (A120) were measured, and a ratio (A120/A0) was defined as a residual rate. The residual rate was used as an indicator for a color developing durability. The higher the residual rate, the higher the color developing durability. The results of Examples 26, 50, and Comparative Examples 1 to 8 are summarized in Table 1, and the results of Examples 27 to 49 are summarized in Tables 2 and 3.
First, the photochromic compound obtained in Example 1, additives, and a polymerizable compound were mixed to obtain a curable composition.
As the polymerizable compound, a combination of the following polymerizable monomers was used. • 1,3-bis(isocyanatomethyl)cyclohexane: 36.7 parts by mass Pentaerythritol tetrakis(3-mercaptopropionate): 39.4 parts by mass • Polyoxyethylene polyoxypropylene lauryl ether (Wonder Surf 140 manufactured by Aoki Oil Industrial Co., Ltd.): 17.4 parts by mass • 1-decanethiol: 2.8 parts by mass • RX-1 adjusted according to the method described in Patent Document 13: 3.8 parts by mass
Note that the photochromic compound was added to the curable composition so that the amount of the photochromic compound was 0.106 mmol based on 100 g of the total amount of the polymerizable monomer. The following additives were used: Dimethyltin dichloride • : 0.05 part by mass • Irganox 245: 0.1 part by mass • 2-ethylhexyl 4-methoxycinnamate: 0.6 part by mass
The prepared curable composition was thoroughly defoamed, then injected into a glass mold having a 1 mm gap, and polymerized by cast polymerization. The polymerization was carried out in an air furnace while gradually raising the temperature from 27°C to 120°C over 18 hours. After the polymerization, the cured product was removed from the glass mold to obtain a photochromic cured product having a thickness of 1 mm. The obtained photochromic cured product was evaluated in the same manner as in Example 26.
(Examples 85 to 99, and Comparative Example 14 to 18) Photochromic cured products were prepared using photochromic compounds presented in Tables 6 and 7 in the same manner as in Example 84. The results of Examples 84 and 85 and Comparative Examples 14 to 18 are summarized in Table 6, and the results of Examples 86 to 99 are summarized in Table 7.

In the case of `COCCOCCC1(CCOCCOC)c2cc(C)ccc2-c2c1c1c(c3cc(C)ccc23)OC(c2ccc(N(C)c3ccc(F)cc3)cc2)(c2ccc(OC)c(OC)c2)C=C1` (centres unmarked) [Example 8], the Maximum absorption wavelength in data set [1] came out at 474 nm; in data set [1] (listed as Formula (57)) it was 597 nm; in data set [2], 476 nm; in data set [2] (listed as Formula (57)) it was 604 nm. Further, the A23 in data set [2] is recorded as 0.51 -; in data set [2] (listed as Formula (57)), 1.24 -.
As for `CCCC1(CCC)c2ccccc2-c2c1c1c(c3cc(OC)c(-c4ccc(OC)cc4OC)cc23)OC(c2ccc(C)cc2)(c2ccc(N(C)c3ccccc3)cc2)C=C1` (centres unmarked) [Example 19], the Maximum absorption wavelength was determined as 494 nm in data set [1], 604 nm in data set [1] (listed as Formula (80)), 496 nm in data set [2] and 610 nm in data set [2] (listed as Formula (80)). In addition, the A23 in data set [2] is 0.87 -; in data set [2] (listed as Formula (80)), 1.15 -.
Turning to `CCCCC1(CCCC)c2cc(-c3ccc(OC(C)C)cc3)ccc2-c2c1c1c(c3cc(OC)ccc23)OC(c2ccc(N(C)c3ccccc3)cc2)(c2ccc(OC)c(F)c2)C=C1` (centres unmarked) [Example 21], the Maximum absorption wavelength was 489 nm in data set [1], 609 nm in data set [1] (listed as Formula (83)), 490 nm in data set [2] and 616 nm in data set [2] (listed as Formula (83)). The A23 in data set [2] was 0.62 -; in data set [2] (listed as Formula (83)), 1.25 -.
For `COCCC1(CCOC)c2ccccc2-c2c1c1c(c3cc(OC)c(-c4ccc(N(c5ccccc5)c5ccccc5)cc4)cc23)OC(c2ccc(Oc3ccccc3)cc2)(c2ccc(N(C)c3ccccc3)cc2)C=C1` (centres unmarked) [Example 23], the Maximum absorption wavelength turned out to be 506 nm in data set [1] and 609 nm in data set [1] (listed as Formula (85)).
`COc1ccc(N(C)c2ccc(C3(c4ccc(CCO[Si](C)(C)CC[Si](O[Si](C)(C)C)(O[Si](C)(C)C)O[Si](C)(C)C)cc4)C=Cc4c5c(c6cc(N(C)c7ccccc7)c(OC)cc6c4O3)-c3ccc(C(F)(F)F)cc3C53CCC(C)(C)CC3)cc2)cc1` (centres unmarked) [Example 60]: the Maximum absorption wavelength in data set [1] is 523 nm; in data set [1] (listed as Formula (121)) it was 582 nm.
For `COCCN(c1ccccc1)c1ccc(C2(c3ccc4c(c3)OCCO4)C=Cc3c4c(c5cc6c(cc5c3O2)SC(C)(C)O6)-c2ccccc2C42CCC3(CCCCC3)CC2)cc1` (centres unmarked) [Example 14], the Maximum absorption wavelength in data set [1] is 492 nm; in data set [1] (listed as Formula (72)), 586 nm; in data set [2] it was 496 nm; in data set [2] (listed as Formula (71)), 590 nm. The A23 in data set [2] is 0.59 -; in data set [2] (listed as Formula (71)), 0.65 -.
In the case of `CCCCOCCC1(CCOCCCC)c2ccccc2-c2c1c1c(c3cc(OC)c(NC(=O)c4ccccc4)cc23)OC(c2ccc(N(C)c3ccccc3)cc2)(c2ccc(OC)c(F)c2)C=C1` (centres unmarked) [Example 53], the Maximum absorption wavelength is reported as 500 nm in data set [1] and 605 nm in data set [1] (listed as Formula (95)).
In the case of `CCCC1(CCC)c2cc(OC(F)(F)F)ccc2-c2c1c1c(c3cc(OC)c(Sc4c(C)cccc4C)cc23)OC(c2ccc(N(C)c3ccccc3)cc2)(c2ccc(OC)c(OC)c2)C=C1` (centres unmarked) [Example 57], the Maximum absorption wavelength in data set [1] is 493 nm; in data set [1] (listed as Formula (110)), 615 nm; in data set [2], 496 nm; in data set [2] (listed as Formula (110)) it was 625 nm. Moreover, the A23 in data set [2] was 0.86 -; in data set [2] (listed as Formula (110)), 0.88 -.
Turning to `COCCCCC1(CCCCOC)c2cc(Sc3c(C)cccc3C)ccc2-c2c1c1c(c3cc(OC)ccc23)OC(c2ccc(OC)cc2)(c2ccc(N(C)c3ccc(OC)cc3)cc2)C=C1` (centres unmarked) [Example 11], the figures for the Maximum absorption wavelength in data set [1] and in data set [1] (listed as Formula (65)) were 477 nm and 614 nm, respectively.
